Our source for the inhibition and IC50 values is ChEMBL document CHEMBL1158422, “A library of novel allosteric inhibitors against fructose 1,6-bisphosphatase” (Bioorg Med Chem, 2009).

Several values for one entry are separate records, joined by “and”; a condition that tells them apart may be missing. Equal entries are not always repeated. Activity calls are given as the source filed them. No cut-off for these calls is given here.

As usually defined, the inhibition is the relative decrease from the control value, in per cent. In general, IC50 refers to the concentration that inhibits the measured activity by half.

The first assay has as its target T1, Fructose-1,6-bisphosphatase 1 (Sus scrofa) (UniProt P00636).
T1 sequence (whole entry): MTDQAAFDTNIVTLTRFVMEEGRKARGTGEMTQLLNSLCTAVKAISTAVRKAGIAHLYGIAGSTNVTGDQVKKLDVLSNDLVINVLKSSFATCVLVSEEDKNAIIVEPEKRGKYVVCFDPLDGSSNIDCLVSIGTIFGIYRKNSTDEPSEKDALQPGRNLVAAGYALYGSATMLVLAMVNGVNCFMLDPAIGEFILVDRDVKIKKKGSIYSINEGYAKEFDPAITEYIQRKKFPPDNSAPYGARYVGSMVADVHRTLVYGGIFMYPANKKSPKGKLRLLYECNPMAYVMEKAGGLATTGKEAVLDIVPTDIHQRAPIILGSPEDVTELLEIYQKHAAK
Briefly: Inhibition of pig FBPase expressed in Escherichia coli EK1601 up to 300 uM by spectrophotometry.
Details: not given
In the case of `O=[N+]([O-])c1cccc(Nc2nc(-c3ccccc3)cs2)c1`, the inhibition entry is “inactive”.

The next assay deals with T2, Fructose-1,6-bisphosphatase 1 (Sus scrofa, UniProt P00636).
T2 sequence (P00636 whole entry): T1 sequence (whole entry)
As to the kind of experiment: Inhibition of pig FBPase expressed in Escherichia coli EK1601 by spectrophotometry.
Details: not given
As for `O=[N+]([O-])c1ccc(-c2csc(Nc3ccccc3)n2)cc1`, the half-maximal inhibitory concentration (IC50) entry was “Not Active”.

Turning to `O=[N+]([O-])c1ccc(Nc2nc(-c3ccccc3)cs2)cc1`, the IC50 entry is given as “Not Active”.

Still in this assay, the particulars now being: read-out: IC50.
On to `NS(=O)(=O)c1ccc(Nc2nc(-c3ccc(O)cc3O)cs2)cc1`, for which the IC50 is 55 µM.

As for `O=C(O)c1cccc(Nc2nc(-c3ccc(O)cc3)cs2)c1`, the IC50 was found to be 48 µM.

Take `Nc1nc(-c2ccccc2)cs1`: the IC50 is 1390 µM.

With `NS(=O)(=O)c1cccc(Nc2nc(-c3ccc(O)cc3)cs2)c1`, the IC50 worked out at 50 µM.

As for `Oc1ccc(-c2csc(Nc3ccccc3O)n2)cc1`, the concentration for half-maximal inhibition (IC50) was determined as 15 µM.

On to `Nc1ncnc2c1ncn2[C@@H]1O[C@H](COP(=O)(O)O)[C@@H](O)[C@H]1O` [ADENOSINE PHOSPHATE], for which the half-inhibitory concentration (IC50) turned out to be 1.3 µM.

On to `CCc1c(C)sc(NC(=S)NCc2ccccn2)c1C(=O)OC`, for which the IC50 came to 20 µM.

Turning to `O=C(O)c1ccc(S(=O)(=O)c2ccc(C(=O)O)cc2)cc1`, the IC50 worked out at 750 µM.

As for `O=[N+]([O-])c1ccc(Nc2nc(-c3ccc(O)cc3)cs2)cc1`, the IC50 was 246 µM.

As for `Oc1ccc(Nc2nc(-c3ccccc3)cs2)cc1`, the IC50 was 124 µM.

Regarding `c1ccc(Nc2nc(-c3ccccc3)cs2)cc1`, the 50% inhibitory concentration (IC50) stood at 2500 µM.

With `NS(=O)(=O)c1ccc(Nc2nc(-c3ccc(O)cc3)cs2)cc1`, the IC50 was 32 µM and 31.6 µM.

For the compound `O=C(O)c1cccc(Nc2nc(-c3ccccc3)cs2)c1`, the half-maximal inhibitory concentration (IC50) was determined as 571 µM.

`Nc1nc(-c2ccc(O)cc2O)cs1`: the concentration for half-maximal inhibition (IC50) was found to be 93 µM.

In the case of `Cc1cc(C)n(CC(O)COc2ccc3ccccc3c2)n1` (stereo not drawn), the IC50 was determined as 3000 µM.

Take `O=[N+]([O-])c1cccc(Nc2nc(-c3ccc(O)cc3)cs2)c1`: the IC50 is 48 µM.

For the compound `Oc1ccc(Nc2nc(-c3ccc(O)cc3)cs2)cc1`, the IC50 turned out to be 48 µM.

As to `Oc1cccc(Nc2nc(-c3ccc(O)cc3O)cs2)c1`, the IC50 worked out at 6 µM.

For the compound `NS(=O)(=O)c1ccc(Nc2nc(-c3ccccc3)cs2)cc1`, the IC50 was determined as 145 µM.

Turning to `Oc1ccc(-c2csc(Nc3cccc(O)c3)n2)cc1`, the IC50 worked out at 13 µM.

`Nc1nc(-c2ccc(O)cc2)cs1`: the IC50 was determined as 1.1 µM.

On to `NS(=O)(=O)c1cccc(Nc2nc(-c3ccccc3)cs2)c1`, for which the IC50 stood at 104 µM.

Turning to `Oc1ccc(-c2csc(Nc3ccccc3)n2)c(O)c1`, the half-maximal inhibitory concentration (IC50) came to 343 µM.

In the case of `Oc1ccc(Nc2nc(-c3ccc(O)cc3O)cs2)cc1`, the IC50 was found to be 11 µM.

Regarding `Oc1ccc(-c2csc(Nc3ccccc3O)n2)c(O)c1`, the concentration for half-maximal inhibition (IC50) stood at 20 µM.

For `Oc1ccccc1-c1csc(Nc2ccccc2)n1`, the 50% inhibitory concentration (IC50) was found to be 119 µM.

For `Oc1ccccc1Nc1nc(-c2ccccc2)cs1`, the 50% inhibitory concentration (IC50) amounted to 270 µM.

Regarding `Oc1cccc(Nc2nc(-c3ccccc3)cs2)c1`, the half-inhibitory concentration (IC50) turned out to be 35 µM.

Regarding `Oc1ccc(-c2csc(Nc3ccccc3)n2)cc1`, the IC50 came to 318 µM.

Another assay concerns the target T1, Fructose-1,6-bisphosphatase 1 (Sus scrofa). Briefly: Inhibition of pig FBPase expressed in Escherichia coli EK1601 at 100 uM by spectrophotometry.
Details: not given
The compound `O=[N+]([O-])c1ccc(-c2csc(Nc3ccc(O)cc3)n2)cc1` yielded an inhibition of 87%.
